Source: US20190216815A1, “COMBINATION THERAPY COMPRISING A POLYUNSATURATED KETONE AND A FOLIC ACID PARTNER” (Avexxin AS, priority 2016, published 2019)

How the values were obtained:
Assay type in all cases: cell-based
[1] = system: LPS-induced production of TNF in PBMC; assay: LPS-induced TNF production in PBMC (ELISA); conditions: 1 μM MTX alone, 72 hours, 10 ng/mL LPS
Method: (§1) Blood was recruited from healthy donors at St. Olays Hospital HF, the Bloodbank. Peripheral blood mononuclear cells (PBMC) were isolated using SepMate™ separation tubes with LymphoPrep density gradient medium according to the STEMCELL Technology recommendations. For experiments, 1×10^6 cells/well/1 mL RPMI medium supplemented with 5% FBS, 0.3 mg/ml glutamine and 0.1 mg/ml gentamicin with or without inhibitors Compound A1, methotrexate hydrate (MTX) (Sigma-Aldrich, #A6770) or a combination of the two inhibitors, prior to the addition of lipopolysaccharides as a potent inducer of inflammation (LPS from E. coli 026:B6 γ-irradiated, Sigma-Aldrich, #L2654). Following treatment (72 hrs., 37° C., 5% CO2), the cell suspensions were centrifuged to isolate the supernatant from the cell fraction. Samples were stored at −80° C. until analysis.
(§2) Cell supernatant samples were analyzed by enzyme-linked immunosorbent assay (EIA) for PGE2 (Cayman #514010), TNF and IL1-β (RnD Systems, DuoSet #DY210 and #DY201) according to the manufacturers protocols. Cell supernatants were assayed at dilutions 1:1 for TNF; 1:10 for IL1-β and 1:100 for PGE2, except supernatants from untreated PBMC (negative control) that were assayed undiluted in all assays. Supernatants were hybridized over-night incubation, enzymatic conversion of substrate were read at OD420 nm. […]

HaCaT cells = assay: Resazurin assay, HaCaT keratinocyte proliferation and viability; conditions: Homo sapiens, 10 μM MTX alone, 24 hours of treatment, read-out: reduction of proliferation and viability of HaCaT cells
Method: The spontaneously immortalized, nontumorigenic skin keratinocyte cell line HaCaT was maintained in DMEM supplemented with 5% (v/v) FBS, 0.3 mg/ml glutamine and 0.1 mg/ml gentamicin at 37° C. with 5% CO2 in a humidified atmosphere. Subculture using trypsin-EDTA was performed every 3-4 days with split ratio of 1:3-1:4 to ensure actively proliferating cells. Cells were seeded in 96 well plates in fully supplemented medium at a density of 2500 cells per well. Following 72 hours of cultivation, the cells were starved of serum in 0.25% FBS/DMEM overnight to halt proliferation, synchronize and to increase cell sensitivity to treatment. On day 4, the cells were treated with cPLA2α inhibitor Compound A1 and folic acid analogue methotrexate hydrate (MTX) (Sigma Aldrich #A6770) and left to incubate for […] in incubator at 37° C. with 5% CO2 in a humidified atmosphere before fluorescence was read at 544 nm excitation and 590 nm emission wavelength. The cells were observed under the microscope to evaluate possible morphology changes and signs of stress before addition of resazurin. The experiments were performed in series of 8 wells per treatment and repeated 2-3 times.

[2] = system: LPS-induced IL-1b levels in PBMC; assay: LPS-induced IL-1β production in PBMC (ELISA); conditions: 1 μM MTX alone, 72 hours, 10 ng/mL LPS
Method: as §1, §2

SMILES: CN(Cc1cnc2nc(N)nc(N)c2n1)c1ccc(C(=O)N[C@@H](CCC(=O)O)C(=O)O)cc1 [MTX, methotrexate hydrate]
- reduction of LPS-induced TNF levels [1]: ~20%
- cytotoxicity at 10 µM (HaCaT cells): ~15%
- reduction of LPS-induced IL-1b levels [2]: ~20%
